Test results: patent US20250122225A1, “MASP-2 INHIBITORS AND METHODS OF USE” (Omeros Corporation, priority 2023, published 2025)
Each block holds one compound with its values, some of them ahead of it.

Legend:
human α-thrombin = target: T1, human α-thrombin (Homo sapiens, UniProt P00734); assay: Enzymatic assay for thrombin (fluorogenic peptide substrate Boc-VPR-AMC); format: biochemical
T1 construct: enzyme (human α-thrombin (BioPharm® Lab.)) in assay buffer; purchased BioPharm® Lab
Description: The thrombin assay utilizes a fluorogenic peptide substrate (Boc-VPR-AMC (R&D Systems) and was run at room temperature in an assay buffer containing 20 mM Hepes, pH 7.4, 140 mM NaCl and 0.1% Tween 20. Assay parameters were adjusted such that the assay was linear with respect to time, enzyme, and substrate concentrations. Under these optimized assays conditions, IC50 values were equivalent to Ki values, except in a few cases of “tight binding” inhibitors. Cases of “tight binding” or possible “slow binding” inhibitors were handled by the methods described in Copeland R. A. (2013) Evaluation of Enzyme Inhibitors in Drug Discovery. 2nd Ed. John Wiley and Sons, Inc., Chapters 5-7.
The thrombin assay protocol was carried out as follows. Test compounds were serially diluted in DMSO and then 100 nL of each dilution was transferred to the assay plate(s). 10 μL of Assay Buffer was added, followed by 15 μL of enzyme (human α-thrombin (BioPharm® Lab.)) in assay buffer. 15 μL of substrate in assay buffer was then added and the sample mixed to start the reaction. After 20 min at room temperature, 15 μL of a stop solution (0.1 M acetic acid) was added, the sample was mixed, and the plates were read on a SpectraMax® i3x Microplate Reader with the data exported as Excel files. Each assay plate included a “no inhibitor” (DMSO only) control, a “no enzyme” control, and a reference inhibitor control. % Activity values=100*(ave. test comp. fluorescence−ave. “no enz” fluorescence)/(ave. “DMSO only” fluorescence−ave. “no enz” fluorescence). IC50 and Ki values were very reproducible, with values falling well within ±2-fold.

MASP-2 (CCP1-CCP2-SP) = target: T2, MASP-2 (CCP1-CCP2-SP) (Homo sapiens, UniProt O00187); assay: Enzymatic assay for MASP-2 inhibitory activity (fluorogenic substrate); format: biochemical
T2 construct: 15 μL of Enzyme MASP-2 (CCP1-CCP2-SP) in Assay Buffer
T2 sequence (O00187 445-686 limits assumed): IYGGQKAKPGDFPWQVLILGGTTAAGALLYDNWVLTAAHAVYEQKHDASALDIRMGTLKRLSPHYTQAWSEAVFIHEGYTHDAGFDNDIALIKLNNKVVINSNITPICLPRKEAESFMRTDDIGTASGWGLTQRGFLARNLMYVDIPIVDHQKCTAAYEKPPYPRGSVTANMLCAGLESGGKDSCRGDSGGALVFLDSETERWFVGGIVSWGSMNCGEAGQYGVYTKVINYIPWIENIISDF
T2 sequence (O00187 287-444 partner limits assumed): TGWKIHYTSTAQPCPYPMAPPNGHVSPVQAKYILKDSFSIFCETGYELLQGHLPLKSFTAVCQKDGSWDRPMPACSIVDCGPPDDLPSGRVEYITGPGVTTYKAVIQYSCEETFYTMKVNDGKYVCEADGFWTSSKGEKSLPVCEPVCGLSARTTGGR
Description: The MASP-2 assay utilizes a fluorogenic substrate, based on the cleavage site for its natural substrate C2. The assay was run at room temperature in an assay buffer containing 20 mM HEPES, pH 7.4, 140 mM NaCl and 0.1% Tween 20. Assay parameters were adjusted such that the assay was linear with respect to time, enzyme, and substrate concentrations. Under the optimized assays conditions, IC50 values were equivalent to Ki values, except in the few cases of “tight binding” inhibitors. Cases of “tight binding” or possible “slow binding” inhibitors were handled by the methods described in Copeland R. A. (2013) Evaluation of Enzyme Inhibitors in Drug Discovery. 2nd Ed., John Wiley and Sons, Inc., Chapters 5-7.
The MASP-2 assay protocol was carried out as follows. Test compounds were serially diluted in DMSO and then 100 nL of each dilution was transferred to the assay plate(s). 10 μL of Assay Buffer was added, followed by 15 μL of Enzyme MASP-2 (CCP1-CCP2-SP) in Assay Buffer. 15 μL of Substrate in Assay Buffer was then added and the mixture was mixed to start the reaction. After 20 min at room temperature, 15 μL of a stop solution (0.1 M acetic acid) was added, the sample was mixed, and the plates were read on a SpectraMax i3x Microplate Reader with the data exported as an Excel file. Each assay plate included a “no inhibitor” (DMSO only) control, a “no enzyme” control, and a reference inhibitor control. % Activity values=100*(average test comp. fluorescence−average “no enzyme” fluorescence)/(average “DMSO only” fluorescence−average “no enzyme” fluorescence). IC50 and Ki replicate values were very reproducible, with values well within ±2-fold.

Ki (human α-thrombin): > 25000 nM | Ki (MASP-2 (CCP1-CCP2-SP)): < 500 nM
SMILES: Cc1cc2[nH]c(CNC(=O)[C@@H]3CCc4cnc(NCc5cccc(C)c5C)c(=O)n43)cc2cn1 [Compound 58, (S)-3-((2,3-dimethylbenzyl)amino)-N-((6-methyl-1H-pyrrolo[3,2-c]pyridin-2-yl)methyl)-4-oxo-4,6,7,8-tetrahydropyrrolo[1,2-a]pyrazine-6-carboxamide]

Ki (human α-thrombin): 500 to 2500 nM | Ki (MASP-2 (CCP1-CCP2-SP)): < 500 nM
SMILES: Cc1cccc(CNc2ncc3n(c2=O)[C@H](C(=O)NCc2cc4cnccc4[nH]2)CC3)c1C [Compound 59, (S)-N-((1H-pyrrolo[3,2-c]pyridin-2-yl)methyl)-3-((2,3-dimethylbenzyl)amino)-4-oxo-4,6,7,8-tetrahydropyrrolo[1,2-a]pyrazine-6-carboxamide]

Ki (human α-thrombin): < 500 nM | Ki (MASP-2 (CCP1-CCP2-SP)): < 500 nM
SMILES: Cc1cccc(CNc2ncc3n(c2=O)[C@H](C(=O)NCc2ccc(N)nc2C)CC3)c1C [Compound 60, (S)-N-((6-amino-2-methylpyridin-3-yl)methyl)-3-((2,3-dimethylbenzyl)amino)-4-oxo-4,6,7,8-tetrahydropyrrolo[1,2-a]pyrazine-6-carboxamide]

Ki (human α-thrombin): 2500 to 10000 nM | Ki (MASP-2 (CCP1-CCP2-SP)): < 500 nM
SMILES: Cc1cc2[nH]c(CNC(=O)[C@@H]3CCc4cnc(NCc5cccc(C)c5F)c(=O)n43)cc2cn1 [Compound 61, (S)-3-((2-fluoro-3-methylbenzyl)amino)-N-((6-methyl-1H-pyrrolo[3,2-c]pyridin-2-yl)methyl)-4-oxo-4,6,7,8-tetrahydropyrrolo[1,2-a]pyrazine-6-carboxamide]

Ki (human α-thrombin): < 500 nM | Ki (MASP-2 (CCP1-CCP2-SP)): < 500 nM
SMILES: Cc1cccc(CNc2ncc3n(c2=O)[C@H](C(=O)NCc2ccc(N)nc2C)CC3)c1F [Compound 62, (S)-N-((6-amino-2-methylpyridin-3-yl)methyl)-3-((2-fluoro-3-methylbenzyl)amino)-4-oxo-4,6,7,8-tetrahydropyrrolo[1,2-a]pyrazine-6-carboxamide]

Ki (human α-thrombin): 500 to 2500 nM | Ki (MASP-2 (CCP1-CCP2-SP)): < 500 nM
SMILES: Cc1ccc(F)cc1CNc1ncc2n(c1=O)[C@H](C(=O)NCc1cc3cnccc3[nH]1)CC2 [Compound 63, (S)-N-((1H-pyrrolo[3,2-c]pyridin-2-yl)methyl)-3-((5-fluoro-2-methylbenzyl)amino)-4-oxo-4,6,7,8-tetrahydropyrrolo[1,2-a]pyrazine-6-carboxamide]

Ki (human α-thrombin): 10000 to 25000 nM | Ki (MASP-2 (CCP1-CCP2-SP)): < 500 nM
SMILES: Cc1cc2[nH]c(CNC(=O)[C@@H]3CCc4cnc(NCc5cc(F)ccc5C)c(=O)n43)cc2cn1 [Compound 64, (S)-3-((5-fluoro-2-methylbenzyl)amino)-N-((6-methyl-1H-pyrrolo[3,2-c]pyridin-2-yl)methyl)-4-oxo-4,6,7,8-tetrahydropyrrolo[1,2-a]pyrazine-6-carboxamide]

Ki (human α-thrombin): < 500 nM | Ki (MASP-2 (CCP1-CCP2-SP)): < 500 nM
SMILES: Cc1ccc(F)cc1CNc1ncc2n(c1=O)[C@H](C(=O)NCc1ccc(N)nc1C)CC2 [Compound 65, (S)-N-((6-amino-2-methylpyridin-3-yl)methyl)-3-((5-fluoro-2-methylbenzyl)amino)-4-oxo-4,6,7,8-tetrahydropyrrolo[1,2-a]pyrazine-6-carboxamide]

More lines, now with the values behind:

SMILES: Cc1ccc(CNc2ncc3n(c2=O)[C@H](C(=O)NCc2cc4cnccc4[nH]2)CC3)cc1C [Compound 44, (S)-N-((1H-pyrrolo[3,2-c]pyridin-2-yl)methyl)-3-((3,4-dimethylbenzyl)amino)-4-oxo-4,6,7,8-tetrahydropyrrolo[1,2-a]pyrazine-6-carboxamide]
Ki (human α-thrombin): 500 to 2500 nM | Ki (MASP-2 (CCP1-CCP2-SP)): < 500 nM

SMILES: CCc1cccc(CNc2ncc3n(c2=O)[C@H](C(=O)NCc2cc4cnccc4[nH]2)CC3)c1 [Compound 45, (S)-N-((1H-pyrrolo[3,2-c]pyridin-2-yl)methyl)-3-((3-ethylbenzyl)amino)-4-oxo-4,6,7,8-tetrahydropyrrolo[1,2-a]pyrazine-6-carboxamide]
Ki (human α-thrombin): < 500 nM | Ki (MASP-2 (CCP1-CCP2-SP)): < 500 nM

SMILES: CCc1cccc(CNc2ncc3n(c2=O)[C@H](C(=O)NCc2ccc(N)nc2C)CC3)c1 [Compound 46, (S)-N-((6-amino-2-methylpyridin-3-yl)methyl)-3-((3-ethylbenzyl)amino)-4-oxo-4,6,7,8-tetrahydropyrrolo[1,2-a]pyrazine-6-carboxamide]
Ki (human α-thrombin): < 500 nM | Ki (MASP-2 (CCP1-CCP2-SP)): < 500 nM

SMILES: Cc1nc(N)ccc1CNC(=O)[C@@H]1CCc2cnc(NCc3cccc(CO)c3)c(=O)n21 [Compound 47, (S)-N-((6-amino-2-methylpyridin-3-yl)methyl)-3-((3-(hydroxymethyl)benzyl)amino)-4-oxo-4,6,7,8-tetrahydropyrrolo[1,2-a]pyrazine-6-carboxamide]
Ki (human α-thrombin): < 500 nM | Ki (MASP-2 (CCP1-CCP2-SP)): < 500 nM

SMILES: COc1cc(C)cc(CNc2ncc3n(c2=O)[C@H](C(=O)NCc2ccc(N)nc2C)CC3)c1 [Compound 49, (S)-N-((6-amino-2-methylpyridin-3-yl)methyl)-3-((3-methoxy-5-methylbenzyl)amino)-4-oxo-4,6,7,8-tetrahydropyrrolo[1,2-a]pyrazine-6-carboxamide]
Ki (human α-thrombin): < 500 nM | Ki (MASP-2 (CCP1-CCP2-SP)): < 500 nM

SMILES: Cc1cc(C)cc(CNc2ncc3n(c2=O)[C@H](C(=O)NCc2cc4cnc(C)cc4[nH]2)CC3)c1 [Compound 50, (S)-3-((3,5-dimethylbenzyl)amino)-N-((6-methyl-1H-pyrrolo[3,2-c]pyridin-2-yl)methyl)-4-oxo-4,6,7,8-tetrahydropyrrolo[1,2-a]pyrazine-6-carboxamide]
Ki (human α-thrombin): 10000 to 25000 nM | Ki (MASP-2 (CCP1-CCP2-SP)): < 500 nM

SMILES: COc1cc(C)cc(CNc2ncc3n(c2=O)[C@H](C(=O)NCc2cc4cnc(C)cc4[nH]2)CC3)c1 [Compound 51, (S)-3-((3-methoxy-5-methylbenzyl)amino)-N-((6-methyl-1H-pyrrolo[3,2-c]pyridin-2-yl)methyl)-4-oxo-4,6,7,8-tetrahydropyrrolo[1,2-a]pyrazine-6-carboxamide]
Ki (human α-thrombin): 2500 to 10000 nM | Ki (MASP-2 (CCP1-CCP2-SP)): < 500 nM

SMILES: Cc1ccccc1CNc1ncc2n(c1=O)[C@H](C(=O)NCc1ccc(N)nc1C)CC2 [Compound 52, (S)-N-((6-amino-2-methylpyridin-3-yl)methyl)-3-((2-methylbenzyl)amino)-4-oxo-4,6,7,8-tetrahydropyrrolo[1,2-a]pyrazine-6-carboxamide]
Ki (human α-thrombin): < 500 nM | Ki (MASP-2 (CCP1-CCP2-SP)): < 500 nM

SMILES: Cc1ccccc1CNc1ncc2n(c1=O)[C@H](C(=O)NCc1cc3cnccc3[nH]1)CC2 [Compound 53, (S)-N-((1H-pyrrolo[3,2-c]pyridin-2-yl)methyl)-3-((2-methylbenzyl)amino)-4-oxo-4,6,7,8-tetrahydropyrrolo[1,2-a]pyrazine-6-carboxamide]
Ki (human α-thrombin): 500 to 2500 nM | Ki (MASP-2 (CCP1-CCP2-SP)): < 500 nM

SMILES: O=C(NCc1cc2cnccc2[nH]1)[C@@H]1CCc2cnc(NCc3cc(F)cc(F)c3)c(=O)n21 [Compound 54, (S)-N-((1H-pyrrolo[3,2-c]pyridin-2-yl)methyl)-3-((3,5-difluorobenzyl)amino)-4-oxo-4,6,7,8-tetrahydropyrrolo[1,2-a]pyrazine-6-carboxamide]
Ki (human α-thrombin): 500 to 2500 nM | Ki (MASP-2 (CCP1-CCP2-SP)): < 500 nM

SMILES: Cc1ccc(C)c(CNc2ncc3n(c2=O)[C@H](C(=O)NCc2ccc(N)nc2C)CC3)c1 [Compound 55, (S)-N-((6-amino-2-methylpyridin-3-yl)methyl)-3-((2,5-dimethylbenzyl)amino)-4-oxo-4,6,7,8-tetrahydropyrrolo[1,2-a]pyrazine-6-carboxamide]
Ki (human α-thrombin): < 500 nM | Ki (MASP-2 (CCP1-CCP2-SP)): < 500 nM

SMILES: Cc1ccc(C)c(CNc2ncc3n(c2=O)[C@H](C(=O)NCc2cc4cnccc4[nH]2)CC3)c1 [Compound 56, (S)-N-((1H-pyrrolo[3,2-c]pyridin-2-yl)methyl)-3-((2,5-dimethylbenzyl)amino)-4-oxo-4,6,7,8-tetrahydropyrrolo[1,2-a]pyrazine-6-carboxamide]
Ki (human α-thrombin): 500 to 2500 nM | Ki (MASP-2 (CCP1-CCP2-SP)): < 500 nM

SMILES: Cc1ccc(C)c(CNc2ncc3n(c2=O)[C@H](C(=O)NCc2cc4cnc(C)cc4[nH]2)CC3)c1 [Compound 57, (S)-3-((2,5-dimethylbenzyl)amino)-N-((6-methyl-1H-pyrrolo[3,2-c]pyridin-2-yl)methyl)-4-oxo-4,6,7,8-tetrahydropyrrolo[1,2-a]pyrazine-6-carboxamide]
Ki (human α-thrombin): 10000 to 25000 nM | Ki (MASP-2 (CCP1-CCP2-SP)): < 500 nM
